In patent publication US10149887B2, “Peptides and peptidomimetics in combination with t cell activating and/or checkpoint inhibiting agents for cancer treatment” (CanBas Co., Ltd., priority 2015, dated 2018):
Like-named read-outs stand apart in the source and are kept apart here. Square brackets hold non-standard residues; d marks the D form. Peptide text beside a SMILES is read from it. dPhe(4-NO2) = N[C@H](Cc1ccc([N+](=O)[O-])cc1)C(=O)O; dPhe(F5) = N[C@H](Cc1c(F)c(F)c(F)c(F)c1F)C(=O)O; dBpa = N[C@H](Cc1ccc(C(=O)c2ccccc2)cc1)C(=O)O; dCha = N[C@H](CC1CCCCC1)C(=O)O

Experiments:
Jurkat cells [1] = experiment: G2 checkpoint abrogation, flow cytometry of bleomycin treated Jurkat cells; format: cell-based, human; details: dose with 40 μg/ml bleomycine giving detectable G2 checkpoint abrogation, 24 hours
Method: Flow cytometry analysis of G2 checkpoint abrogation was performed using human leukemia derived Jurkat cell line. In brief, cultured cells were treated with various doses of peptide/peptidomimetic and 40 μg/ml bleomycine for 24 hr. The DNA of the cells was stained with propidium iodide and analyzed by flow cytometry.
The G2 checkpoint abrogating activity of various arginine rich sequences at different doses on cells treated with bleomycine was studied. Briefly, peptides were added to culture medium of Jurkat cells with bleomycin (40 μg/ml) at 0.2 μg/ml, 0.39 μg/ml, 0.78 μg/ml, 1.56 μg/ml, 3.125 μg/ml, 6.25 μg/ml, 12.5 μg/ml, 25 μg/ml and 50 μg/ml. Cells were subsequently harvested after 24 hours, stained with Krishan's solution, and analyzed with flow cytometry as previously described.

Jurkat cells [2] = experiment: Side effect of peptide used alone: Jurkat cell cycle disturbance (flow cytometry); format: cell-based; details: dose that produced Jurkat cell cycle disturbance, peptide alone
Method: Cell-cycle analysis The cell cycle status of the cells treated with bleomycin or adriamcin were analyzed by flow cytometry as described by Kawabe (1997) Nature 385:454-458. In brief, two million cells were re-suspended and incubated in 200 μl Krishan's solution (0.1% Sodium citrate, 50 μg/ml PI, 20 μg/ml RNase A and 0.5% NP-40) for 1 hr at 4° C. and analyzed by a flow cytometry, FACScan™ (Beckton Dickinson, Mountain View, Calif.) with the program CELLQuest™ (Beckton Dickinson).
(§1) The “Appearance of side effect when used alone” indicates the peptide/peptidomimetic dose that produced Jurkat cell cycle disturbance, i.e., the appearance of significant amounts of SubG1 cells (dead cells) or cells in which the DNA content of each varies more than usual. […] The “G2 abrogating dose” indicates the peptide/peptidomimetic dose with 40 μg/ml bleomycine that produced detectable G2 checkpoint abrogation activity following treatment for 24 hours. The “Appearance of side effect when used with colchicine” indicates the peptide/peptidomimetic dose with 5 μg/ml colchicine that produced Jurkat cell cycle disturbance following treatment for 24 hours.

Jurkat cells [3] = experiment: M phase checkpoint abrogation / non specific toxicity, colchicine treated Jurkat cells; format: cell-based; details: dose with 5 μg/ml colchicine that produced Jurkat cell cycle disturbance, 24 hours
Method: Flow cytometry analysis of M phase checkpoint abrogation by the compounds was performed using human T cell leukemia Jurkat cell line treated with colchicine (5 μg/ml or 0.5 μg/ml) and various doses of peptide/peptidomimetics for 24 hr (FIG. 12). The DNA of the cells was stained and analyzed by flow cytometry as described above.
as §1
A comparison between G2 checkpoint abrogating activity and non specific toxicity (M checkpoint abrogation) by CB501 was performed. In brief, Jurkat cells were treated with 40 μg/ml bleomycin or 0.5 μg/ml colchicine for G2 checkpoint abrogating activity and non specific toxicity, respectively. The DNA amount in each of the treated cells was analyzed by flow cytometry, as previously described.

PKA = experiment: In vitro kinase inhibition, PepTag Non-Radioactive Protein Kinase Assay; format: biochemical
CHK2 = CHK2 (Homo sapiens, UniProt O96017); experiment: as above; format: biochemical; details: purified CHK2 kinase
Method: Since two kinases, Chk1 and Chk2, are important for G2 checkpoint mechanism, kinase inhibition analysis of both enzymes was performed. In vitro kinase inhibition analysis was performed using “PepTag® Non-Radioactive Protein Kinase Assays”, Promega, according to company's protocol, except purified CHK2 kinase was used instead of PKC.

[4] = biological target: T1, recombinant human full length Chk1 (Homo sapiens, UniProt O14757); experiment: In vitro kinase inhibition (CycLex), phosphorylation of serine 216 on GST-Cdc25C; format: biochemical
T1 construct: baculovirus derived recombinant human full length Chk1 with histidine tag; histidine tag; host or cells: baculovirus system (insect cells) for Chk1; E. coli for the GST-Cdc25C substrate
T1 sequence (O14757 1-476): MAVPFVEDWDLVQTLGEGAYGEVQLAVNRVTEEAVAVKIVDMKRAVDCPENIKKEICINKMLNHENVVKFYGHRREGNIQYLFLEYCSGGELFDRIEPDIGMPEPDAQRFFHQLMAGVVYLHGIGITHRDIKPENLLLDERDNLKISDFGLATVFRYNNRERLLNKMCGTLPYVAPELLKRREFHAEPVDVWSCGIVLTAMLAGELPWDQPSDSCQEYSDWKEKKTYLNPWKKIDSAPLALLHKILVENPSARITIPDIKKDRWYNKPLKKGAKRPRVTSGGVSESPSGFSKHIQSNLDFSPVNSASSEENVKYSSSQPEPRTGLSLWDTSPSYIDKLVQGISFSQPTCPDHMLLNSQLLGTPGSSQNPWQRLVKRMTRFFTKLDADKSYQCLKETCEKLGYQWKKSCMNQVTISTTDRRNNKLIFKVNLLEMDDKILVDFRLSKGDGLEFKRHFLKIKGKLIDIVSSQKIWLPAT
Method: (§2) In vitro kinase inhibition analysis was performed by CycLex, Co. Ltd., Nagano, Japan. Briefly, baculovirus derived recombinant human full length Chk1 with histidine tag or E. Coli derived recombinant human full length Chk2 fused with GST were used as kinases. E. Coli derived recombinant GST-Cdc25C (amino acis 167-267) was used as a substrate. Reaction conditions were 20 mM Hepes-KOH (pH7.5), 1 mM DTT, 80 μg/ml BSA, 10 mM MgCl2 and […] at 30 degree for 60 min. The phosphorylation of serine 216 on GST-Cdc25C was detected by anti-Cdc25C-phosphorylated 5216 antibody with enzyme linked immune assay.

[5] = biological target: T2, recombinant human full length Chk2 (Homo sapiens, UniProt O96017); experiment: as above; format: biochemical
T2 construct: E. Coli derived recombinant human full length Chk2 fused with GST; host or cells: E. coli
Method: as §2

[6] = Human serum treatment analysis (residual G2 checkpoint abrogating activity); format: in vitro ADME; details: 37 degrees
Method: Serum analysis was performed to determine the stability of peptides in mouse and human serum. Briefly, peptides (10 mM or 2.5 mM) were incubated with freshly prepared human serum at 37 degrees for 1 hr. […] Jurkat cells were treated with the serum with or without peptides and bleomycin (40 μg/ml) and incubated for 24 hr. The population of G2 phase cells was determined by flow cytometry as previously described. The residual G2 checkpoint abrogating activity of serum treated peptides were determined by comparing the % G2 cells of the treated serum and the standard curve produced with medium treated peptides, bleomycin and Jurkat cells (Table 5A).

MIAPaCa2 = details: three hours exposure
Method: The medium was changed and incubated an additional 24, 48 or 72 hour. Following incubation, 20 μl of alamarBlue 90% reagent was added to each well for another 6 hours for detection of cell viability by fluorescent intensity. Fluorescent intensity was measured using a Spectrafluor Plus plate reader with exitation 530 nm and emission 590 nm. The IC50 was calculated (Table 6).

CT26WT = CT26WT s.c. syngeneic tumor model in Balb/c mice (Example 9); format: in vivo, mouse; details: CDDP 5 mg/kg, CBP501 7.5 mg/kg, anti-mPD1 200 ug, 3 dosing cycles
Method: Relative sizes of tumors were plotted versus the number of days after initiation of the treatment.
All animal studies were conducted according to the protocols approved by the institutional animal care committee of CanBas Co. Ltd. Six-week-old female Balb/c mice (Charles River Laboratories Japan Inc.) were inoculated subcutaneously in the flank with a suspension of CT26WT (5×10^5 cells). […] Tumor volumes, measured thrice weekly with a pair of calipers, were calculated with the following formula: volume (mm^3)=[width (mm)]^2×length (mm)/2. Growth curves after treatment were generated by plotting the mean+/−SE of tumor sizes.
Treatments were initiated when tumor size were reached (˜100 mm^3).

Chain of CHK2 (O96017 whole entry): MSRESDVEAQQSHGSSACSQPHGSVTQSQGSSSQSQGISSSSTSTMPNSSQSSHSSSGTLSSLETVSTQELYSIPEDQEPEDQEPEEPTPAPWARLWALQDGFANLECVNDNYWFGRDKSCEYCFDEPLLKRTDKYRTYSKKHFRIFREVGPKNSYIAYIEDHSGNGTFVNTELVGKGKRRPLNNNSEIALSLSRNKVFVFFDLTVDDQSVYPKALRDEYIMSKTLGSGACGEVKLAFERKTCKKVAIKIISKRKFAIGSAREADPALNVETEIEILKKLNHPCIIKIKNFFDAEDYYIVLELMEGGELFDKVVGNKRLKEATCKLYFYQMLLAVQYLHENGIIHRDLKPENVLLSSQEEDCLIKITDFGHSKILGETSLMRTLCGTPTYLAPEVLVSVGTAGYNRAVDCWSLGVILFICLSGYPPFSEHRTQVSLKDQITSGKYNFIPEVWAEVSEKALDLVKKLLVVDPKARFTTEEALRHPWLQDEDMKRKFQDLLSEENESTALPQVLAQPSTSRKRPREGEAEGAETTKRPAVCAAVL
T2 sequence (O96017 whole entry, the tested form may be a part): as the sequence (O96017 whole entry) above

N=C(N)NCCC[C@@H](NC(=O)[C@@H](CCCCN)NC(=O)[C@@H](CCCCN)NC(=O)[C@@H](CCCNC(=N)N)NC(=O)[C@@H](CCCNC(=N)N)NC(=O)[C@@H](CCC(N)=O)NC(=O)[C@@H](CCCNC(=N)N)NC(=O)[C@@H](CCCNC(=N)N)NC(=O)[C@@H](CCCNC(=N)N)NC(=O)[C@@H](CC1CCCCC1)NC(=O)[C@@H](Cc1c(F)c(F)c(F)c(F)c1F)NC(=O)[C@@H](CCCNC(=N)N)NC(=O)[C@@H](CO)NC(=O)CNC(=O)[C@@H](CO)NC(=O)[C@@H](Cc1ccc(O)cc1)NC(=O)[C@H](N)Cc1ccc(O)cc1)C(=O)NCC(=O)N[C@H](Cc1ccc(O)cc1)C(=O)O [CBP450, (d-Tyr)(d-Tyr)(d-Ser)(1-Gly)(d-Ser)(d-Arg)(d-Phe-2,3,4,5,6-F)(d-Cha)(d-Arg)(d-Arg)(d-Arg)(d-Gln)(d-Arg)(d-Arg)(d-Lys)(d-Lys)(d-Arg)(1-Gly)(d-Tyr)] (H-[dY][dY][dS]G[dS][dR][dPhe(F5)][dCha][dR][dR][dR][dQ][dR][dR][dK][dK][dR]G[dY]-OH; N-terminus and C-terminus assumed)
G2 abrogating dose (Jurkat cells [1]): ≥0.78 µM | Appearance of side effect when used alone (Jurkat cells [2]): >6.25 µM | Appearance of side effect when used with Colchicine (Jurkat cells [3]): >6.25 µM | IC50 (PKA): > 400 µM | IC50 (CHK2): 10 µM

N=C(N)NCCC[C@@H](NC(=O)[C@@H](CCCNC(=N)N)NC(=O)[C@@H](CCC(N)=O)NC(=O)[C@@H](CCCNC(=N)N)NC(=O)[C@@H](CCCNC(=N)N)NC(=O)[C@@H](CCCNC(=N)N)NC(=O)[C@@H](CC1CCCCC1)NC(=O)[C@@H](Cc1ccc([N+](=O)[O-])cc1)NC(=O)[C@@H](CO)NC(=O)[C@@H](Cc1c[nH]c2ccccc12)NC(=O)[C@@H](CO)NC(=O)[C@H](N)Cc1ccc(C(=O)c2ccccc2)cc1)C(=O)O [CBP603, (d-Bpa)(d-Ser)(d-Trp)(d-Ser)(d-Phe4No2)(d-Cha)(d-Arg)(d-Arg)(d-Arg)(d-Gln)(d-Arg)(d-Arg)] (H-[dBpa][dS][dW][dS][dPhe(4-NO2)][dCha][dR][dR][dR][dQ][dR][dR]-OH; N-terminus and C-terminus assumed)
IC50 [4]: 15.5 µM | IC50 [5]: 18.1 µM | Residual activity of peptide after 1 hr human serum treatment [6]: >50% of original

N.N.[Cl][Pt][Cl] [cisplatin, cis-diamminodichloroplatinum, reference compound]
IC50 (MIAPaCa2; read-out: IC50 24 hr, additional 24 hour): 16 µM | IC50 (MIAPaCa2; read-out: IC50 48 hr, additional 48 hour): 31 µM | IC50 (MIAPaCa2; read-out: IC50 72 hr, additional 72 hour): 46 µM | Reduction of tumor growth as compared to vehicle-treated mice (CT26WT): 52.7%
